Assay results taken from ChEMBL document CHEMBL3745662, “Preliminary investigation of 6,7-dihydropyrazolo[1,5-a]pyrazin-4-one derivatives as a novel series of mGlu5 receptor positive allosteric modulators with efficacy in preclinical models of schizophrenia” (Bioorg Med Chem Lett, 2016).
One block for each molecule: values may come before it.

Legend:
[1] = target: T1, Metabotropic glutamate receptor 5 (Homo sapiens, UniProt P41594); experiment: Positive allosteric modulation of human mGlu5 expressed in HEK293 cells assessed as glutamate-induced calcium mobilization; format: functional, cell-based; conditions: read-out: EC50
Target sequence in this assay (P41594 whole entry): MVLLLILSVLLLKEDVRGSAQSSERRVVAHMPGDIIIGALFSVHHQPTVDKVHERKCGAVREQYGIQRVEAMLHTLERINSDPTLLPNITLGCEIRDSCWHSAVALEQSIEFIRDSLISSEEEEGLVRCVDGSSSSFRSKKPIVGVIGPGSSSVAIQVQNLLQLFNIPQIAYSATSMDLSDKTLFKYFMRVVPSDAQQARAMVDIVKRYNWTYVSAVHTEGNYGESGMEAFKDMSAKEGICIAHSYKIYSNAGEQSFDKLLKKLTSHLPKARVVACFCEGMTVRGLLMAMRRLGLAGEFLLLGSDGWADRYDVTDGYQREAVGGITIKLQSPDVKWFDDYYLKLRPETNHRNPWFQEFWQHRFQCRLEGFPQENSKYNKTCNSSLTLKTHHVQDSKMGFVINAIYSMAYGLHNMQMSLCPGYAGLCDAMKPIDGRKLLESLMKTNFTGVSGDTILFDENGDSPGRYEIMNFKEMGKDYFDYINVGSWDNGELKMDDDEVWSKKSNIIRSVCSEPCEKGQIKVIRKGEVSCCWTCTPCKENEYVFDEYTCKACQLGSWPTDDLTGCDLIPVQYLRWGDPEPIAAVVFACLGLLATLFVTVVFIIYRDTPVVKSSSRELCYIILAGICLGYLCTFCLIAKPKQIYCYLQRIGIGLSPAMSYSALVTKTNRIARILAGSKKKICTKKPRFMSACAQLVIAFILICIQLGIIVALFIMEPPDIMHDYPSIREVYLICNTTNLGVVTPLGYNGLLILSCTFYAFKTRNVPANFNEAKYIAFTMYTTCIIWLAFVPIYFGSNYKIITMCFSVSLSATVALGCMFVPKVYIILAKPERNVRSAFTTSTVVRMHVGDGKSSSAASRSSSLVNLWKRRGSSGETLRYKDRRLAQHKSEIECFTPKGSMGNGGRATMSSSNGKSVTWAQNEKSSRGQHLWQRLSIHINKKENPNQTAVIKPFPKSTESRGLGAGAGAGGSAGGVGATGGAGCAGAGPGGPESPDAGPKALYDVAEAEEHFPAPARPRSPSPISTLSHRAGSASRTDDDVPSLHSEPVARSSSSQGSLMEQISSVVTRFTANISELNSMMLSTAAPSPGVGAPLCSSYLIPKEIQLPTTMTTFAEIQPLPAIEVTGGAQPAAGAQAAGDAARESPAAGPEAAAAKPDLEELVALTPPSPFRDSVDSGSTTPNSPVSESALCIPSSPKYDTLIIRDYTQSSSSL

[2] = target: T1, Metabotropic glutamate receptor 5; experiment: Positive allosteric modulation of human mGlu5 expressed in HEK293 cells assessed as glutamate-induced calcium mobilization relative to glutamate; format: functional, cell-based
Target sequence in this assay (P41594 21-1212 limits assumed): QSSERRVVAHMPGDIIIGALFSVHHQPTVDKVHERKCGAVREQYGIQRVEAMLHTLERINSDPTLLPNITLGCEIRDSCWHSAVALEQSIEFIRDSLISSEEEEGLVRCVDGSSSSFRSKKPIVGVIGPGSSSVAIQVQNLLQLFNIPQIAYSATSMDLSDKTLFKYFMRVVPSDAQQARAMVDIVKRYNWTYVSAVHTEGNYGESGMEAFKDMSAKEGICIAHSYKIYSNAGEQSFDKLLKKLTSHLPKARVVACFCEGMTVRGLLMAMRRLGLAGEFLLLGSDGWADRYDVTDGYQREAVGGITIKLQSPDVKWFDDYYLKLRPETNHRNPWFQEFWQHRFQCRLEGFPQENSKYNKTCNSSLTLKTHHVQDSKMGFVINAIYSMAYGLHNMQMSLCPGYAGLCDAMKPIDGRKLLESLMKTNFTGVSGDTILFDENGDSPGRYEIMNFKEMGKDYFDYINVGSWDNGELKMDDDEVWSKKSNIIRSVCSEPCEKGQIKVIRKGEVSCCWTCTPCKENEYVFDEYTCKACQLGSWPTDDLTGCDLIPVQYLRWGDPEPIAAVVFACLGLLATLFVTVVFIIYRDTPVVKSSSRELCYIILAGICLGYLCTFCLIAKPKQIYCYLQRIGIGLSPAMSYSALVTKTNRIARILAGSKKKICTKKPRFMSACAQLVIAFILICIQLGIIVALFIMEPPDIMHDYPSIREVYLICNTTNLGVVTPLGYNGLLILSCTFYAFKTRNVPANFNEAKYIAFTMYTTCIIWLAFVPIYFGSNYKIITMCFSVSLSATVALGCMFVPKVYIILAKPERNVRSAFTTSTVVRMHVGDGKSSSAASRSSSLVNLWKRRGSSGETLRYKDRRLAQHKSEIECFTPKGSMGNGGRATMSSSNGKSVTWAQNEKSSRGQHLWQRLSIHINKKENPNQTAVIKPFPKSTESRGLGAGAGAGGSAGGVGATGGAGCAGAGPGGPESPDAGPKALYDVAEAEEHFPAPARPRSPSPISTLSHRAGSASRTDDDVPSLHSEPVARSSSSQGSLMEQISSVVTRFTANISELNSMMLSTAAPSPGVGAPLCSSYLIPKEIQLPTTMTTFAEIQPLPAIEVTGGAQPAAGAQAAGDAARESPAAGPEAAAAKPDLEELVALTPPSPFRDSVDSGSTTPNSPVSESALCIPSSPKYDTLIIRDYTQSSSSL

[3] = target: Metabotropic glutamate receptor 3 (Homo sapiens, UniProt Q14832); experiment: Antagonist activity at human mGlu3 expressed in HEK293 cells assessed as inhibition of glutamate-induced calcium mobilization; format: functional, cell-based
Sequence of Metabotropic glutamate receptor 3 (Q14832 whole entry): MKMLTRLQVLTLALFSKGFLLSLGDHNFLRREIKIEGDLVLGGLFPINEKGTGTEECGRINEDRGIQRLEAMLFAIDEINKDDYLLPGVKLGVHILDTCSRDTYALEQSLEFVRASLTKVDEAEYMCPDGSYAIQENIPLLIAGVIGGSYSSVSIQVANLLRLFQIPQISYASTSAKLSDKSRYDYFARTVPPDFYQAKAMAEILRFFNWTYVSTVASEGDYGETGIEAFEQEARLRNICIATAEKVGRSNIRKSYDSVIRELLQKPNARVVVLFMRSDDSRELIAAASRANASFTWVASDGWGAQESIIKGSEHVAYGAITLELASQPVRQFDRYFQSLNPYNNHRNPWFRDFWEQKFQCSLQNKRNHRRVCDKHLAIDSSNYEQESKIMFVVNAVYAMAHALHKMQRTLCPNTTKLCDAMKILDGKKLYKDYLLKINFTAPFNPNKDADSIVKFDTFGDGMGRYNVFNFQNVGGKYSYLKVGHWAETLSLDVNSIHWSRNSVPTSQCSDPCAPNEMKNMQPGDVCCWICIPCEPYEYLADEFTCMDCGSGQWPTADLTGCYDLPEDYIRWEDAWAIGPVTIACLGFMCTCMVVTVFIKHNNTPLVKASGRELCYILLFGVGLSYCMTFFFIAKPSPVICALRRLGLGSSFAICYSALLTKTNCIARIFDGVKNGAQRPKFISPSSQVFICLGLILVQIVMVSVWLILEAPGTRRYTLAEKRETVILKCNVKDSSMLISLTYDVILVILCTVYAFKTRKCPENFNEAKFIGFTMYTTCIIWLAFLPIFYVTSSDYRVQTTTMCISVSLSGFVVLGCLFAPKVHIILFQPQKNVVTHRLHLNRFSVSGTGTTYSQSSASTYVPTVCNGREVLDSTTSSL

[4] = target: Metabotropic glutamate receptor 2 (Homo sapiens, UniProt Q14416); experiment: Positive allosteric modulation of human mGlu2 receptor expressed in HEK293 cells assessed as calcium mobilization by fluorescence analysis; format: functional, cell-based
[5] = target: T2, Metabotropic glutamate receptor 4 (Homo sapiens, UniProt Q14833); experiment: Positive allosteric modulation of human mGlu4 receptor expressed in HEK293 cells by [35S]-GTPgammaS binding assay; format: functional, cell-based
T2 sequence (Q14833 whole entry): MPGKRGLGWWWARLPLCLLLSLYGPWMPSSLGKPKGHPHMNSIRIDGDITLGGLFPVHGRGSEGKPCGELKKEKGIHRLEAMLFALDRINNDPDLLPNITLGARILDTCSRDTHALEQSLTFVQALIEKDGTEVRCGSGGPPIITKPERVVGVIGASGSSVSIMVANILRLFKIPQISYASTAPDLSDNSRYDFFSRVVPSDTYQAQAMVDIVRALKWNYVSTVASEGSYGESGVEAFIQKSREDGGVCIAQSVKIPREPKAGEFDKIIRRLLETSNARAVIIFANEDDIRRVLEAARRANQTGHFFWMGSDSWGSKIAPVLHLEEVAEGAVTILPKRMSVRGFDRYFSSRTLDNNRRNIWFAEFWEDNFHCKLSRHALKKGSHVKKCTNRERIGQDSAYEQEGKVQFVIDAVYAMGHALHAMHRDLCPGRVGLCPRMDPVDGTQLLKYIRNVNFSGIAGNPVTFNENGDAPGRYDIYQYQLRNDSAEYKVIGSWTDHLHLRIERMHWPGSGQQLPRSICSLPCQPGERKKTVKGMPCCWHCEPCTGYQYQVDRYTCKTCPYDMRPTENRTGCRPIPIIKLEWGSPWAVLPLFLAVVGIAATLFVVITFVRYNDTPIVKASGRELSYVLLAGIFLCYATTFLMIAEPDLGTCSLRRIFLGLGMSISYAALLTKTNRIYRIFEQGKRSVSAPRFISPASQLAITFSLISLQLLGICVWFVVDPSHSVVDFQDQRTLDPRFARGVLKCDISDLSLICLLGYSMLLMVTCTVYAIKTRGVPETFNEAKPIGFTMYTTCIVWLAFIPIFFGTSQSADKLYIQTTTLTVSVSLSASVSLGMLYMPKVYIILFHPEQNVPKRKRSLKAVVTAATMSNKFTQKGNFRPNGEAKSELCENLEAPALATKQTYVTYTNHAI

[6] = target: Metabotropic glutamate receptor 6 (Rattus norvegicus, UniProt P35349); experiment: Positive allosteric modulation of rat mGlu6 receptor expressed in CHO cells by [35S]-GTPgammaS binding assay; format: functional, cell-based
[7] = target: T2, Metabotropic glutamate receptor 4; experiment: Positive allosteric modulation of human mGlu4 receptor expressed in L929sA cells assessed as calcium mobilization by fluorescence analysis; format: functional, cell-based
[8] = target: Metabotropic glutamate receptor 8 (Homo sapiens, UniProt O00222); experiment: Positive allosteric modulation of human mGlu8 receptor expressed in HEK293 cells assessed as calcium mobilization by fluorescence analysis; format: functional, cell-based
Sequence of Metabotropic glutamate receptor 8 (O00222 whole entry): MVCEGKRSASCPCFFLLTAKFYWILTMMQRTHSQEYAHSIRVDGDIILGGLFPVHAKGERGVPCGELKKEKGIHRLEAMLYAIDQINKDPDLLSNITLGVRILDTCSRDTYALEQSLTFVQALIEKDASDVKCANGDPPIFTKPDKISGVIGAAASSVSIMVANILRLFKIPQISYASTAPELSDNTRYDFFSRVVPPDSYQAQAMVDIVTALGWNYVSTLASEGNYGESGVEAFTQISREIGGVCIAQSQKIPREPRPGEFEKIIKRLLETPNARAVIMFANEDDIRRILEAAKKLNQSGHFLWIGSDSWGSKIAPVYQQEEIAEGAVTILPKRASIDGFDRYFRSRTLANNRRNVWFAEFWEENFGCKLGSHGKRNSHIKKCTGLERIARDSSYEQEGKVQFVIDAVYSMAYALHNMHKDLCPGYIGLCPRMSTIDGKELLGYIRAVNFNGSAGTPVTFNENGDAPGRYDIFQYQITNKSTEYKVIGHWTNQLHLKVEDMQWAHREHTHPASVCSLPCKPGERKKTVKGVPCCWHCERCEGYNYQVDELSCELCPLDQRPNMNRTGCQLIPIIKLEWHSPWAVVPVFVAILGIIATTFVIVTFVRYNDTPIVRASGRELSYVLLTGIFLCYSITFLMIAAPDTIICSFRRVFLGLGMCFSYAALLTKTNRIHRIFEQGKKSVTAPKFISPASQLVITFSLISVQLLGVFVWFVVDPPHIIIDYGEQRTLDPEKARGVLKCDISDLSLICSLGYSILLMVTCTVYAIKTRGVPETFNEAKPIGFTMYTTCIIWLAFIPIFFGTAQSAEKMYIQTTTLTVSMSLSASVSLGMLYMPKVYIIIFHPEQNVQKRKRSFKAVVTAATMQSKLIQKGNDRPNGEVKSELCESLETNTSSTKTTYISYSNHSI

[9] = target: T2, Metabotropic glutamate receptor 4; experiment: Positive allosteric modulation of human mGlu4 receptor expressed in HEK293 cells assessed as calcium mobilization by fluorescence analysis; format: functional, cell-based
[10] = Percentage unbound in rat brain; format: ADME, tissue-based; conditions: brain tissue
[11] = target: T2, Metabotropic glutamate receptor 4; experiment: Positive allosteric modulation of human mGlu4 receptor expressed in L929sA cells by [35S]-GTPgammaS binding assay; format: functional, cell-based
[12] = target: Metabotropic glutamate receptor 1 (Homo sapiens, UniProt Q13255); experiment: Positive allosteric modulation of human mGlu1 receptor expressed in HEK293 cells assessed as calcium mobilization by fluorescence analysis; format: functional, cell-based
[13] = target: Metabotropic glutamate receptor 7 (Homo sapiens, UniProt Q14831); experiment: Positive allosteric modulation of human mGlu7 receptor expressed in HEK293 cells assessed as calcium mobilization by fluorescence analysis; format: functional, cell-based

Compound: O=C1c2cc(COc3ccc(F)cn3)nn2CCN1c1ccc(F)cc1
EC50 [1]: 7940 nM | Emax [2]: 52%

Compound: O=C1c2cc(COc3ccccc3)nn2CCN1c1ccc(F)cc1
EC50 [1]: 65 nM | Emax [2]: 79% | EC50 [3]: 74 nM

EC50 [1]: > 30000 nM
Compound: O=C1c2cc(OCc3ccccc3)nn2CCN1c1cc(F)ccn1

Compound: O=C1c2cc(COc3ccccn3)nn2CCN1c1ccc(F)cc1
EC50 [1]: 490 nM | Emax [2]: 68% | EC50 [3]: 290 nM

Compound: O=C1c2cc(COc3ccccc3)nn2CCN1c1ccc(F)cc1F
EC50 [1]: 100 nM | Emax [2]: 101%

Compound: Cc1ccc(N2CCn3nc(COc4ccccc4)cc3C2=O)cc1
EC50 [1]: 71 nM | Emax [2]: 65% | EC50 [3]: 150 nM

Compound: O=C1c2cc(COc3cccc(F)c3)nn2CCN1c1ccc(F)cn1
EC50 [1]: 91 nM | Emax [2]: 62%

Compound: O=C1c2cc(COc3ccccc3)nn2CCN1c1ncc(F)cn1
EC50 [1]: 760 nM | Emax [2]: 72%

EC50 [1]: > 30000 nM
Compound: O=C1c2c(Cl)c(COc3ccccc3)nn2CCN1c1ccc(F)cc1

Compound: O=C1c2cc(COc3ccccc3)nn2CCN1c1ccccc1F
EC50 [1]: 160 nM | Emax [2]: 86%

Compound: Cc1ccc(N2CCn3nc(COc4ccccc4)cc3C2=O)nc1
EC50 [1]: 190 nM | Emax [2]: 76%

Compound: O=C1c2cc(COc3ccncc3)nn2CCN1c1ccc(F)cc1
EC50 [1]: 690 nM | Emax [2]: 69%

Compound: COc1ccc(N2CCn3nc(COc4ccccc4)cc3C2=O)nc1
EC50 [1]: 620 nM | Emax [2]: 74%

EC50 [1]: 2340 nM | Emax [2]: 65%
Compound: O=C1c2nc(COc3ccccc3)nn2CCN1c1ccc(F)cc1

Compound: O=C1c2cc(OCc3ccccc3)nn2CCN1c1ccc(F)cc1
EC50 [4]: > 10000 nM | EC50 [5]: > 10000 nM | EC50 [6]: > 10000 nM | EC50 [1]: 160 nM | Emax [2]: 54% | EC50 [7]: > 10000 nM | EC50 [8]: > 10000 nM | EC50 [9]: > 10000 nM | fraction unbound [10]: 0.065 | EC50 [11]: > 10000 nM | EC50 [12]: > 10000 nM | EC50 [13]: > 10000 nM | EC50 [3]: 3390 nM
